According to ChEMBL document CHEMBL6071206, “Development of BODIPY FL SNS 032 as a Versatile Probe for Constitutive Androstane Receptor and Multiple Kinases” (ACS Med Chem Lett, 2024):

How the values were obtained:
[1] = molecular target: Glycogen synthase kinase-3 alpha (Homo sapiens, UniProt P49840); assay: Inhibition of GST-tagged human GSK3A incubated for 90 mins by TR-FRET assay
[2] = molecular target: T1, Calcium/calmodulin-dependent protein kinase kinase 2 (Homo sapiens, UniProt Q96RR4); assay: Inhibition of GST-tagged human CAMKK2 incubated for 90 mins by TR-FRET assay
Target sequence in this assay (Q96RR4 whole entry): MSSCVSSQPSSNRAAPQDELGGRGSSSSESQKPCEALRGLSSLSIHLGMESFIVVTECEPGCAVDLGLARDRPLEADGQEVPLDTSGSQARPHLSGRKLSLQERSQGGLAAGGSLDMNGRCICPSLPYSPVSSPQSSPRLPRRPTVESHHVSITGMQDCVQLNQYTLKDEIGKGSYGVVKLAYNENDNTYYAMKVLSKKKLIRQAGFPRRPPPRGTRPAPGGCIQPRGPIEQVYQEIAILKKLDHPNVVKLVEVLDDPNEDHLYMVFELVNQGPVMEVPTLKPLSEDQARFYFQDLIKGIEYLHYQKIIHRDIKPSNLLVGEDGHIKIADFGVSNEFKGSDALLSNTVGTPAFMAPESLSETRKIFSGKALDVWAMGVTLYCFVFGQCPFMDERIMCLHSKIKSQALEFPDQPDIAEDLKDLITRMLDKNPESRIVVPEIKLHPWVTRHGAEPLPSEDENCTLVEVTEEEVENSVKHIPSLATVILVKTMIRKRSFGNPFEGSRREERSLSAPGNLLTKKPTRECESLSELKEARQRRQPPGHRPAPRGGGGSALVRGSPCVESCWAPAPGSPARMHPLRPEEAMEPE

[3] = molecular target: T2, Peripheral plasma membrane protein CASK (Homo sapiens) (UniProt O14936); assay: Inhibition of GST-tagged human CASK at 30 uM incubated for 90 mins by TR-FRET assay relative to control
T2 sequence (whole entry): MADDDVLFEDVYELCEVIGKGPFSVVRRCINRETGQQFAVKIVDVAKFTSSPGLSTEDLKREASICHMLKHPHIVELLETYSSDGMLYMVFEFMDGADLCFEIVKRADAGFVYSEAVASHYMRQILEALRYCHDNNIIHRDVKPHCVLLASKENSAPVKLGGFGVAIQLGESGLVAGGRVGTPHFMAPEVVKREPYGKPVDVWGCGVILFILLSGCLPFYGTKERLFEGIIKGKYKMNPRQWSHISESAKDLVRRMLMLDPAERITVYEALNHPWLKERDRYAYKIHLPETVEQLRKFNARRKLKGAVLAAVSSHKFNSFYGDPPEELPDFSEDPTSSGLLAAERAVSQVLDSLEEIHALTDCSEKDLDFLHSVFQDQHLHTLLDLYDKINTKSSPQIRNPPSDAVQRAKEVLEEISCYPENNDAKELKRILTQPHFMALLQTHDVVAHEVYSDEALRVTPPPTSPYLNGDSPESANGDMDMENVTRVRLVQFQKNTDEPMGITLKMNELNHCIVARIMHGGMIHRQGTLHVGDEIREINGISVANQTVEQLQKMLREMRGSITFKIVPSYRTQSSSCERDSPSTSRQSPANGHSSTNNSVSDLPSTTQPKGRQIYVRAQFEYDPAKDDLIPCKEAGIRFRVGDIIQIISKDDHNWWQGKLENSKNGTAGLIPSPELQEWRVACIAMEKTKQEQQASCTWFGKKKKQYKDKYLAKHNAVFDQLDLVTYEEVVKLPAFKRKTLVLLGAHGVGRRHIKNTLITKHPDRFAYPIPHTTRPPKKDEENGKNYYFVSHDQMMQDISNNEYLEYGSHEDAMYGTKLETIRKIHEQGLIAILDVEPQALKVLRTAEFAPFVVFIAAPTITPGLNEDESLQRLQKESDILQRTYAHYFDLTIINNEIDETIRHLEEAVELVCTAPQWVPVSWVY

[4] = molecular target: T1, Calcium/calmodulin-dependent protein kinase kinase 2; assay: Binding affinity to GST-tagged human CAMKK2 assessed as fold change in FRET signal at 30 uM incubated for 90 mins by TR-FRET assay relative to control
Target sequence in this assay (Q96RR4 2-588 limits assumed): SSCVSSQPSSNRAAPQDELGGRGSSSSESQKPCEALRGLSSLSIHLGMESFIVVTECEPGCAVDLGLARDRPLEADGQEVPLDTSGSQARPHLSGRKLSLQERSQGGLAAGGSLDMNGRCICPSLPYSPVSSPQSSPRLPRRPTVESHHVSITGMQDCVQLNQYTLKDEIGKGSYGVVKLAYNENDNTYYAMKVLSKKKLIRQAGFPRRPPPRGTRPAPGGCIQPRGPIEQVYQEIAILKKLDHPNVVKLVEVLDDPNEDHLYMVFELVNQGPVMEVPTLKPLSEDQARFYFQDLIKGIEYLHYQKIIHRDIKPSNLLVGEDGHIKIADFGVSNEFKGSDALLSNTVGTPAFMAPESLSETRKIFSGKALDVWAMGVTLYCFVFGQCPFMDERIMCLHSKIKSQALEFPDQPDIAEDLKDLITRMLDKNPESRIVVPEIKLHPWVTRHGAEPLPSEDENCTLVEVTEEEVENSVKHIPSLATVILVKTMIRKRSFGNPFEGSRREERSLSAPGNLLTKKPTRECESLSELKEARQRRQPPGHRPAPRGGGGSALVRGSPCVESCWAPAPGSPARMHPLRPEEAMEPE

[5] = molecular target: CDK9/cyclin T1 (Homo sapiens) (UniProt O60563+P50750); assay: Inhibition of His-tagged human CDK9/CycT1 incubated for 90 mins by TR-FRET assay relative to control; assay type: protein-complex assay
[6] = molecular target: T3, Mitogen-activated protein kinase 15 (Homo sapiens, UniProt Q8TD08); assay: Inhibition of Flag/His-tagged human MAPK15 incubated for 90 mins by TR-FRET assay
T3 sequence (Q8TD08 whole entry): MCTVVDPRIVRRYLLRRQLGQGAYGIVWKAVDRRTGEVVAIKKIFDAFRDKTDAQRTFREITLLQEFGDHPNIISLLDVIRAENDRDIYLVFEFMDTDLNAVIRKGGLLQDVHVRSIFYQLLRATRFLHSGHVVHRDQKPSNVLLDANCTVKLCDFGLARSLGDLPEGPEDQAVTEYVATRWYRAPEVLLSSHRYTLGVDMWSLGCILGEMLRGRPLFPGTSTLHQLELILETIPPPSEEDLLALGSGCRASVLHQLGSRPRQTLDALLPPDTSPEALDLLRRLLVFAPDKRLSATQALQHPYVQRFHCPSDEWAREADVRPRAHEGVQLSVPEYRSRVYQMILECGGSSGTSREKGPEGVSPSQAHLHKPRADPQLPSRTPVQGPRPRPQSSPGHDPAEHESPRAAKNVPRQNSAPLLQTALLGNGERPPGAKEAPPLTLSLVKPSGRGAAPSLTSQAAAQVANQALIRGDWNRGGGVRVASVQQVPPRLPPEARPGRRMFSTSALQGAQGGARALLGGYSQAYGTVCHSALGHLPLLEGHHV

[7] = molecular target: T4, Nuclear receptor subfamily 1 group I member 3 (Homo sapiens, UniProt Q14994); assay: Inhibition of GST-tagged human CAR LBD incubated for 90 mins by TR-FRET assay
T4 sequence (Q14994 whole entry): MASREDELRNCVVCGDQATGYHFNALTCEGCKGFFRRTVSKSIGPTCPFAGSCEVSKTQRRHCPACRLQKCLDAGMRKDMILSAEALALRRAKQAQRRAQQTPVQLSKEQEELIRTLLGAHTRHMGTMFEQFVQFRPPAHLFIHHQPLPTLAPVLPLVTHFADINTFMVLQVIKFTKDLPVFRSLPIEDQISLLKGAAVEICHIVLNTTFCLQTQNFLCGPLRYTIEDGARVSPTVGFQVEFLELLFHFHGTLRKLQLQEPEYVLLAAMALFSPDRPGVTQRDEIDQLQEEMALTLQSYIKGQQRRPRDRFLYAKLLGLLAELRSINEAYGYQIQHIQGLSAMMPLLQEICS

[8] = molecular target: T2, Peripheral plasma membrane protein CASK (Homo sapiens); assay: Inhibition of GST-tagged human CASK at 90 uM incubated for 90 mins by TR-FRET assay relative to control
[9] = molecular target: T4, Nuclear receptor subfamily 1 group I member 3; assay: Inhibition of GST-tagged human CAR LBD incubated for 90 mins in presence of Cy5-PGC1-alpha by HTRF co-activator assay
[10] = molecular target: T4, Nuclear receptor subfamily 1 group I member 3; assay: Inhibition of GST-tagged human CAR LBD at 100 uM incubated for 90 mins in presence of Cy5-PGC1-alpha by HTRF co-activator assay relative to control; conditions: 1.5 h, read-out: Imax
[11] = molecular target: T4, Nuclear receptor subfamily 1 group I member 3; assay: Inhibition of GST-tagged human CAR LBD at 100 uM incubated for 90 mins by TR-FRET assay relative to control; conditions: 1.5 h, read-out: Imax
[12] = molecular target: T4, Nuclear receptor subfamily 1 group I member 3; assay: Inhibition of GST-tagged human CAR LBD at 90 uM incubated for 90 mins in presence of Cy5-PGC1-alpha by HTRF co-activator assay relative to control; conditions: 1.5 h, read-out: Imax
CDK9/cyclin T1 = CDK9/cyclin T1 (Homo sapiens, UniProt P50750); assay: Inhibition of His-tagged human CDK9/CycT1 incubated for 90 mins by TR-FRET assay; assay type: protein-complex assay
[13] = molecular target: T4, Nuclear receptor subfamily 1 group I member 3; assay: Inhibition of GST-tagged human CAR LBD at 3 uM incubated for 90 mins in presence of Cy5-PGC1-alpha by HTRF co-activator assay relative to control; conditions: 1.5 h, read-out: Imax
[14] = molecular target: T4, Nuclear receptor subfamily 1 group I member 3; assay: Inhibition of GST-tagged human CAR LBD assessed as FRET signal stability measured for 90 to 180 mins incubated for 90 mins by TR-FRET assay; conditions: time 90-180 min

Sequence of Glycogen synthase kinase-3 alpha (P49840 whole entry): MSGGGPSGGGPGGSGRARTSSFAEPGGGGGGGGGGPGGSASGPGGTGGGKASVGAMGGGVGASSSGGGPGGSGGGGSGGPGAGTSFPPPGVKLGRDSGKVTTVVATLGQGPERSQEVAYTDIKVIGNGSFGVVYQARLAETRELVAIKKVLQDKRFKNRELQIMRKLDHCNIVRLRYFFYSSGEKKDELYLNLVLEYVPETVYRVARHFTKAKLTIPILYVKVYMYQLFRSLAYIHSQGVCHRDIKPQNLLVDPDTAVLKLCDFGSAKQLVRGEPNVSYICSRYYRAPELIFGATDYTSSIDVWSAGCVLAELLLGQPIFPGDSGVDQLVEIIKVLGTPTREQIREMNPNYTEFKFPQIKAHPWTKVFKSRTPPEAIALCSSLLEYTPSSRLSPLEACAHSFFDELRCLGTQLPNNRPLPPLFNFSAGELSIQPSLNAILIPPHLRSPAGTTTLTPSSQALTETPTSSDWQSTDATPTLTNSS
Sequence of CDK9/cyclin T1 (O60563 whole entry, the tested form may be a part): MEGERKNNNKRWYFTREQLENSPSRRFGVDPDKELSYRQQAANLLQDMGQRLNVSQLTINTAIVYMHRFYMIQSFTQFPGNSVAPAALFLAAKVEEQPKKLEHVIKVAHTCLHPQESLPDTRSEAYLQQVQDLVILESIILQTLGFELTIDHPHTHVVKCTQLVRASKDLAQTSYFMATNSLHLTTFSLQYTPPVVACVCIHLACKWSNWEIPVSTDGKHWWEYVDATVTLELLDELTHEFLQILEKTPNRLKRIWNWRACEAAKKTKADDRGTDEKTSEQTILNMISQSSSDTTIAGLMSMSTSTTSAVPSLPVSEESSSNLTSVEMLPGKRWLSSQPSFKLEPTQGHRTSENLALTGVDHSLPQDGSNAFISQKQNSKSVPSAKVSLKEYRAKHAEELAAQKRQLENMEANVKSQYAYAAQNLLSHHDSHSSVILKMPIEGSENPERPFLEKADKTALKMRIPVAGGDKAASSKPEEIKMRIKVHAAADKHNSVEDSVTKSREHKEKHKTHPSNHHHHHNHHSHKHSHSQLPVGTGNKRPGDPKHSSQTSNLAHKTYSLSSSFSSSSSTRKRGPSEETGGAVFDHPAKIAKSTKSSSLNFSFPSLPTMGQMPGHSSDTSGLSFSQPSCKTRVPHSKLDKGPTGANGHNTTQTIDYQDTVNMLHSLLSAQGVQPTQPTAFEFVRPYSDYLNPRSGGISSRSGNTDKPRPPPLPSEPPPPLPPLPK
Sequence of CDK9/cyclin T1 (P50750 whole entry, the tested form may be a part): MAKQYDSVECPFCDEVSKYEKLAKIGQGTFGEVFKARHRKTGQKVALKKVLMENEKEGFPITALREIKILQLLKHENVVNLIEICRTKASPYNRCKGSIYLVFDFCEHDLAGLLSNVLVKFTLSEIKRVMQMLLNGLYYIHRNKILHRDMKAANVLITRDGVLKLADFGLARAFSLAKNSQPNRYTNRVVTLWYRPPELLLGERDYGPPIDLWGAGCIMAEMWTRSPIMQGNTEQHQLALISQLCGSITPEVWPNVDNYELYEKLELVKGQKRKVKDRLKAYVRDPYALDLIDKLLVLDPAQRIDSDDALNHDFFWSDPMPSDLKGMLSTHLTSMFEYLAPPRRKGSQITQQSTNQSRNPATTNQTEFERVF

COc1cc(N2CCOCC2)ccc1Nc1ncc(F)c(Nc2ccccc2NS(C)(=O)=O)n1
IC50 [1]: 20.2 µM
IC50 [2]: 0.0516 µM
inhibition [3]: 40.7%
fold change (FC) [4]: 2.6
inhibition [5]: < 20%
IC50 [6]: 2.8 µM

O=C(Nc1ccc2c(c1)N(C(=O)Cn1cccc1)c1ccccc1CC2)OC1CCCCC1
IC50 [7]: 0.0128 µM

Cn1cc(C2=C(c3cn(CCCSC(=N)N)c4ccccc34)C(=O)NC2=O)c2ccccc21 [BISINDOLYLMALEIMIDE IX]
IC50 [1]: 0.0007 µM
IC50 [2]: 0.161 µM
IC50 [6]: 0.0009 µM

COc1cc(F)ccc1-c1ncnc(Nc2cccc(C[S@](C)(=N)=O)c2)n1 [ATUVECICLIB]
IC50 [1]: 0.0291 µM
IC50 [2]: 1.2 µM
inhibition [8]: 27.3%
IC50 [6]: 2.6 µM

C[C@]12CC[C@@H](O)C[C@@H]1CC[C@@H]1[C@@H]2CC[C@]2(C)C=CC[C@@H]12 [ANDROSTENOL]
IC50 [9]: 0.25 µM
IC50 [7]: 0.339 µM
inhibition at 100 µM [10]: 84.7%

CC(C)(C)c1cnc(CSc2cnc(NC(=O)C3CCNCC3)s2)o1 [BMS-387032]
EC50 [7]: 51.1 µM
inhibition at 100 µM [11]: 50.8%
inhibition at 90 µM [12]: 26.4%

CC(C)(C)c1cnc(CSc2cnc(NC(=O)C3CCN(CC(=O)NCCOCCOCCOCCNc4cccc5c4C(=O)N(C4CCC(=O)NC4=O)C5=O)CC3)s2)o1 (stereo not given)
IC50 [1]: 0.0082 µM
IC50 [2]: 2.7 µM
IC50 [9]: 6.6 µM
IC50 (CDK9/cyclin T1): 0.0056 µM
EC50 [7]: 3.1 µM
inhibition at 100 µM [11]: 43.4%
inhibition at 90 µM [12]: 75.4%
IC50 [6]: 0.0791 µM

Clc1ccc(-c2nc3sccn3c2/C=N/OCc2ccc(Cl)c(Cl)c2)cc1
inhibition at 3 µM [13]: 100%
inhibition (INH) [14]: Active
